System: HCV 1b genotype
Assay: HCV Replicon assay (HCV-neo replicon cells, wild-type)
Format: cell-based
Details: HCV 1b genotype replicon
Method: An HCV Replicon assay was utilized in the present disclosure, and was prepared, conducted and validated as described in commonly owned PCT/US2006/022197 and in O'Boyle et. al. Antimicrob Agents Chemother. 2005 April; 49 (4):1346-53. Assay methods incorporating luciferase reporters have also been used as described (Apath.com).
HCV-neo replicon cells and replicon cells containing mutations in the NS5A region were used to test the currently described family of compounds. The compounds were determined to have more than 10-fold less inhibitory activity on cells containing mutations than wild-type cells. Thus, the compounds of the present disclosure can be effective in inhibiting the function of the HCV NS5A protein and are understood to be as effective in combinations as previously described in application PCT/US2006/022197 and commonly owned WO/O4014852. Further, the compounds of the present disclosure can be effective against the HCV 1b genotype. It should also be understood that the compounds of the present disclosure can inhibit multiple genotypes of HCV. […] In one embodiment, compounds of the present disclosure are inhibitory versus 1a, 1b, 2a, 2b, 3a, 4a, and 5a genotypes.

[1] = Hepatitis C virus, class symbols
[2] = Hepatitis C virus, numeric values

SMILES	EC50 [1]	further results
COC(=O)N[C@@H](C(=O)N(C)[C@@H](C)c1nc2cc(C#Cc3ccc4[nH]c([C@H](C)N(C)C(=O)[C@H](NC(=O)OC)c5ccccc5)nc4c3)ccc2[nH]1)c1ccccc1 [Example M36, dimethyl (1,2-ethynediylbis(1H-benzimidazole-5,2-diyl(1S)-1,1-ethanediyl(methylimino)((1R)-2-oxo-1-phenyl-2,1-ethanediyl)))biscarbamate]		EC50 (numeric values): 0.005 nM
CO[C@@H]1C[C@@H](c2nc3cc(CCc4ccc5nc([C@@H]6C[C@@H](OC)CN6C(=O)OCc6ccccc6)[nH]c5c4)ccc3[nH]2)N(C(=O)OCc2ccccc2)C1 [Example F4, benzyl (2S,4R)-2-(5-(2-(2-((2S,4R)-1-((benzyloxy)carbonyl)-4-methoxy-2-pyrrolidinyl)-1H-benzimidazol-6-yl)ethyl)-1H-benzimidazol-2-yl)-4-methoxy-1-pyrrolidinecarboxylate]	< 4.57 nM	
CN(C)[C@@H](C(=O)N1CCC[C@H]1c1nc2cc(-c3cnc(-c4cccc5[nH]c([C@@H]6C[C@@H]7C[C@@H]7N6C(=O)[C@@H](c6ccccc6)N(C)C)nc45)o3)ccc2[nH]1)c1ccccc1 (single isomer, unassigned) [Example J25.a]		EC50 (class symbols): 4.57 to 99 nM
CN(C)C(C(=O)N1CCC[C@H]1c1nc2ccc(-c3ccc4[nH]c([C@@H]5CCCN5C(=O)[C@@H](c5ccccc5)N(C)C)nc4c3)cc2[nH]1)c1ccccc1 (stereo partly drawn) [Example F1, (1R,1′R)-2,2′-(1H,1′H-5,5′-bibenzimidazole-2,2′-diyldi(2S)-2,1-pyrrolidinediyl)bis(N,N-dimethyl-2-oxo-1-phenylethanamine)]	< 4.57 nM	
CC(=O)N[C@@H](C(=O)N1CCC[C@H]1c1nc2cc(C#Cc3ccc4nc([C@@H]5CCCN5C(=O)[C@H](NC(C)=O)c5ccccc5)[nH]c4c3)ccc2[nH]1)c1ccccc1 [Example M21, N-((1R)-2-((2S)-2-(5-((2-((2S)-1-((2R)-2-acetamido-2-phenylacetyl)-2-pyrrolidinyl)-1H-benzimidazol-6-yl)ethynyl)-1H-benzimidazol-2-yl)-1-pyrrolidinyl)-2-oxo-1-phenylethyl)acetamide]	< 4.57 nM	
COC(=O)N[C@@H](C(=O)N1CCC[C@H]1c1nc2cc(-c3cnc(-c4cccc5[nH]c([C@@H]6CCCN6C(=O)[C@H](NC(=O)OC)c6ccccc6)nc45)o3)ccc2[nH]1)c1ccccc1 [Example J6, Methyl((1R)-2-((2S)-2-(4-(5-(2-((2S)-1-((2R)-2-((methoxycarbonyl)amino)-2-phenylacetyl)-2-pyrrolidinyl)-1H-benzimidazol-5-yl)-1,3-oxazol-2-yl)-1H-benzimidazol-2-yl)-1-pyrrolidinyl)-2-oxo-1-phenylethyl)carbamate]	< 4.57 nM	
CC(=O)N1CCC[C@H]1c1nc2ccc(C#Cc3ccc4[nH]c([C@@H]5CCCN5C(=O)[C@@H]5CCCN5C)nc4c3)cc2[nH]1 [Example M54.27, 5-((2-((2S)-1-acetyl-2-pyrrolidinyl)-1H-benzimidazol-6-yl)ethynyl)-2-((2S)-1-(1-methyl-L-prolyl)-2-pyrrolidinyl)-1H-benzimidazole]	1000 to 10000 nM	
O=C(Cc1ccccc1)N1C[C@@H](N2CCCC2)C[C@H]1c1nc2cc(C#Cc3ccc4[nH]c([C@@H]5C[C@H](N6CCCC6)CN5C(=O)Cc5ccccc5)nc4c3)ccc2[nH]1 [Example M37.2, (3′S,5′S,3″″S,5″″S)-5′,5″-(1,2-ethynediylbis(1H-benzimidazole-5,2-diyl))bis(1′-(phenylacetyl)-1,3′-bipyrrolidine)]	< 4.57 nM	
O=C([C@H](O)c1ccccc1)N1CCC[C@H]1c1nc2cc(-c3ccc(-c4ccc5[nH]c([C@@H]6CCCN6C(=O)[C@H](O)c6ccccc6)nc5c4)o3)ccc2[nH]1 [JG2, (1R,1′R)-2,2′-(2,5-furandiylbis(1H-benzimidazole-5,2-diyl(2S)-2,1-pyrrolidinediyl))bis(2-oxo-1-phenylethanol)]	< 4.57 nM	
CC(=O)N1CCC[C@H]1c1nc2cc(C#Cc3ccc4nc([C@@H]5CCCN5C(C)=O)[nH]c4c3)ccc2[nH]1 [Example M54.28, 2-((2S)-1-acetyl-2-pyrrolidinyl)-5-((2-((2S)-1-acetyl-2-pyrrolidinyl)-1H-benzimidazol-6-yl)ethynyl)-1H-benzimidazole]	100 to 999 nM	
COC(=O)N[C@H](C(=O)N1[C@@H]2C[C@@H]2C[C@H]1c1nc2cc(-c3ccc(Oc4cccc5[nH]c([C@@H]6C[C@H]7C[C@H]7N6C(=O)[C@@H](NC(=O)OC)C(C)C)nc45)cc3)ccc2[nH]1)C(C)C [Example V6, Methyl((1S)-1-(((1R,3S,5R)-3-(4-(4-(2-((1R,3S,5R)-2-((2S)-2-((methoxycarbonyl)amino)-3-methylbutanoyl)-2-azabicyclo[3.1.0]hex-3-yl)-1H-benzimidazol-5-yl)phenoxy)-1H-benzimidazol-2-yl)-2-azabicyclo[3.1.0]hex-2-yl)carbonyl)-2-methylpropyl)carbamate]	< 4.57 nM	
O=C(c1ccccc1NCc1ccccc1)N1CCC[C@H]1c1nc2cc(C#Cc3ccc4[nH]c([C@@H]5CCCN5C(=O)[C@H]5CCCO5)nc4c3)ccc2[nH]1 [Example M54.13, N-benzyl-2-(((2S)-2-(5-((2-((2S)-1-((2R)-tetrahydro-2-furanylcarbonyl)-2-pyrrolidinyl)-1H-benzimidazol-5-yl)ethynyl)-1H-benzimidazol-2-yl)-1-pyrrolidinyl)carbonyl)aniline]	100 to 999 nM	
O=C(c1ccoc1)N1CCC[C@H]1c1nc2cc(C#Cc3ccc4[nH]c([C@@H]5CCCN5C(=O)c5ccoc5)nc4c3)ccc2[nH]1 [Example M13, 5,5′-(1,2-ethynediyl)bis(2-((2S)-1-(3-furoyl)-2-pyrrolidinyl)-1H-benzimidazole)]	< 4.57 nM	
CN(C)[C@@H](C(=O)N1CCC[C@H]1c1nc2cc(C#Cc3ccc4nc([C@@H]5CCCN5C(=O)[C@@H](c5ccccc5)N(C)C)[nH]c4c3)ccc2[nH]1)c1ccccc1 [Example M19, (1R)-2-((2S)-2-(5-((2-((2S)-1-((2R)-2-(dimethylamino)-2-phenylacetyl)-2-pyrrolidinyl)-1H-benzimidazol-6-yl)ethynyl)-1H-benzimidazol-2-yl)-1-pyrrolidinyl)-N,N-dimethyl-2-oxo-1-phenylethanamine]	< 4.57 nM	
O=C(c1cccnc1)N1CCC[C@H]1c1nc2cc(C#Cc3ccc4[nH]c([C@@H]5CCCN5C(=O)c5cccnc5)nc4c3)ccc2[nH]1 [Example M26.1, N,N′-(1,2-ethynediyl)bis(2-((2S)-1-(3-pyridinylcarbonyl)-2-pyrrolidinyl)-1H-benzimidazole)]		EC50 (class symbols): 100 to 999 nM
CC(C)CN[C@H]1C[C@@H](c2nc3cc(C#Cc4ccc5[nH]c([C@@H]6C[C@H](NCC(C)C)CN6C(=O)[C@H]6CCCO6)nc5c4)ccc3[nH]2)N(C(=O)[C@H]2CCCO2)C1 [Example M47.2, (3S,5S,3′S,5′S)-5,5′-(1,2-ethynediylbis(1H-benzimidazole-5,2-diyl))bis(N-isobutyl-1-((2R)-tetrahydro-2-furanylcarbonyl)-3-pyrrolidinamine)]		EC50 [2]: 610 nM
CC(C)C(=O)N1CCC[C@H]1c1nc2cc(C#Cc3ccc4[nH]c([C@@H]5CCCN5C(=O)C(C)C)nc4c3)ccc2[nH]1 [Example M3, 5,5′-(1,2-ethynediyl)bis(2-((2S)-1-isobutyryl-2-pyrrolidinyl)-1H-benzimidazole)]	4.57 to 99 nM	
CC(=O)N1CCC[C@H]1c1nc2cc(C#Cc3ccc4[nH]c([C@@H]5CCCN5C(=O)[C@@H](c5ccccc5)N(C)C)nc4c3)ccc2[nH]1 [Example M56, (1R)-2-((2S)-2-(5-((2-((2S)-1-acetyl-2-pyrrolidinyl)-1H-benzimidazol-5-yl)ethynyl)-1H-benzimidazol-2-yl)-1-pyrrolidinyl)-N,N-dimethyl-2-oxo-1-phenyl-ethanamine]	< 4.57 nM	
O=C(OCc1ccccc1)N1CCC[C@H]1c1nc2cc(-c3ccc4nc([C@@H]5CCCN5C(=O)OCc5ccccc5)[nH]c4c3)ccc2[nH]1 [Example M40, dibenzyl(2S,2′S)-2,2′-(1H,1′H-5,5′-bibenzimidazole-2,2′-diyl)di(1-pyrrolidinecarboxylate)]	100 to 999 nM	
CC(C)C(=O)N1CCC[C@H]1c1nc2ccc(C#Cc3ccc4[nH]c([C@@H]5CCCN5C(=O)[C@H]5CCCO5)nc4c3)cc2[nH]1 [Example M54.8, 5-((2-((2S)-1-isobutyryl-2-pyrrolidinyl)-1H-benzimidazol-6-yl)ethynyl)-2-((2S)-1-((2R)-tetrahydro-2-furanylcarbonyl)-2-pyrrolidinyl)-1H-benzimidazole]	4.57 to 99 nM	
CC(=O)N1CCC[C@H]1c1nc2ccc(C#Cc3ccc4[nH]c([C@@H]5CCCN5C(=O)Cc5ccccn5)nc4c3)cc2[nH]1 [Example M54.20, 5-((2-((2S)-1-acetyl-2-pyrrolidinyl)-1H-benzimidazol-6-yl)ethynyl)-2-((2S)-1-(2-pyridinylacetyl)-2-pyrrolidinyl)-1H-benzimidazole]		EC50 (class symbols): 4.57 to 99 nM
CCc1ccccc1C(=O)N1CCC[C@H]1c1nc2cc(C#Cc3ccc4nc([C@@H]5CCCN5C(C)=O)[nH]c4c3)ccc2[nH]1 [Example M54.19, 5-((2-((2S)-1-acetyl-2-pyrrolidinyl)-1H-benzimidazol-6-yl)ethynyl)-2-((2S)-1-(2-ethylbenzoyl)-2-pyrrolidinyl)-1H-benzimidazole]	100 to 999 nM	
CCO[C@@H]1C[C@@H](c2nc3cc(C#Cc4ccc5nc([C@@H]6C[C@@H](OCC)CN6C(=O)OCc6ccccc6)[nH]c5c4)ccc3[nH]2)N(C(=O)OCc2ccccc2)C1 [Example F9, benzyl (2S,4R)-2-(5-((2-((2S,4R)-1-((benzyloxy)carbonyl)-4-ethoxy-2-pyrrolidinyl)-1H-benzimidazol-6-yl)ethynyl)-1H-benzimidazol-2-yl)-4-ethoxy-1-pyrrolidinecarboxylate]		EC50 [2]: 20 nM

— US7906655B2, “Hepatitis C virus inhibitors” (Bristol-Myers Squibb Company, priority 2008, dated 2011)
